Literature values, collected in EP0622459A1, “Fused proteins for preparing vasoactive intestinal polypeptide analogs, method of preparing same and recombinant plasmids and transformant microorganisms” (SANWA KAGAKU KENKYUSHO CO., LTD., priority 1993, dated 1994).
Ends that are not written are not given here.

Settings: prior-art analogs, result in words

Leu¹⁷-VIP-OH: genetically engineered VIP analog of the prior art (JP-A-1-296996 and JP-A-3-280893) (HSDAVFTDNYTRLRKQLAVKKYLNSILN-OH; UniProt P01282 125-152, looked up, variant M17L)
biological activity compared with VIP: only comparable to naturally occurring VIP
